Data taken from PubChem BioAssay AID2060625 (Molecular Pharmacology Branch, DTP, NCI, 2025).

Tested on: 186277-243-T-J2-PDC spheroids with HUVEC/MSC, viability
Assay: Anticancer human tumor 186277-243-T-J2-PDC patient-derived colon adenocarcinoma cell line growth inhibition [CLK]
Conditions: for IC50: curve of first compound; for viability, T/C: stronger effect = lower value
Description: A high-throughput screen of multi-cell type tumor spheroids was designed to identify active combinations of […] and targeted small molecules. Complex spheroids include a stromal component modeled by human endothelial cells (HUVEC) and fibroblasts modeled by human mesenchymal stem cells (MSCs). The concentration ranges selected for each drug and investigational agent were based upon clinically achievable concentrations if the clinical Cmax of the agent was known.
Compounds. The drugs and investigational agents: cirtuvivint (SM08502; NSC835563), CC-671 (NSC850746), vemurafenib (NSC761431), tapotoclax (NSC804041), sotorasib (NSC818433), adagrasib (NSC831453), MRTX-1133 (NSC836407), BAY2416964 (NSC825713), copanlisib (NSC816437), inavolisib (NSC800729), abemaciclib (NSC768073), osimertinib (NSC779217), entinostat (NSC756642), eltanexor (KPT-8602, NSC794443), venetoclax (NSC766270), ceralasertib (NSC777638), bortezomib (NSC756655), olaparib (NSC753686), talazoparib (NSC767125), alisertib (NSC759677), peposertib (NSC802822), gemcitabine (NSC613327), 5-fluorouracil (NSC19893), SN-38 (NSC673596), oxaliplatin (NSC266046), paclitaxel (NSC125973), and doxorubicin (NSC123127), were obtained from the National Cancer Institute (NCI) Developmental Therapeutics Program Chemical Repository. The FDA-approved anticancer drug set is available from the Developmental Therapeutics Program at https://dtp.cancer.gov/organization/dscb/obtaining/available plates.htm. […] The stock solutions were prepared in dimethyl sulfoxide (DMSO, Sigma-Aldrich, St. Louis, MO, cat. D2650), except for the platinum complexes which were prepared in saline (Quality Biological, Gaithersburg, MD, cat. 114-055-101), at 800-fold the tested concentration and stored at -70 degrees C prior to their use. All drugs and investigational agents were tested over a range starting from a high concentration at or near the clinical Cmax and decreasing in half-log increments. If the clinical Cmax for an agent had not been determined, the highest concentration tested was 10 microM.
Cell Culture. All cells were maintained in an incubator at 37 degrees C and 5% CO2 with 95% humidity. The PDC lines were cultured according to standard operating procedures established by the NCI PDMR. Briefly, all PDCs were thawed and cultured in Matrigel-coated flasks prepared with a working solution of 1X Ham's F-12 nutrient mix, without supplementation (Invitrogen, Waltham, MA, cat. 11765054), 100 U/mL penicillin-streptomycin (Invitrogen, cat. 15140122), and 2.5% Matrigel (Corning Inc., Corning, NY, cat. 354248) for the first three passages. The 947758-054-R-J2-PDC line was cultured in 6B/Colon 1A media, which includes advanced DMEM/F-12 (Thermo Fisher Scientific, cat. 12634028), 10 mM HEPES (Thermo Fisher Scientific, cat. 15630080), 1X GlutaMAX supplement (Thermo Fisher Scientific, cat. 35050061), 0.1 mg/mL primocin (InvivoGen, cat. ant-pm-2), 10% defined fetal bovine serum, heat inactivated (HyClone Laboratories Inc., cat. SH30070.03HI), 1.25 mM N-Acetyl-L-cysteine (Sigma-Aldrich, cat. A9165), 10 mM nicotinamide (Sigma-Aldrich, cat. N0636), 1X B-27 supplement (Thermo Fisher Scientific, cat. 17504044), 1X N-2 supplement (Thermo Fisher Scientific, cat. 17502048), and 10 microM Y-27632 dihydrochloride (Tocris Bioscience, cat. 1254). The 876862-298-R-J1-PDC was cultured in 6E media, which includes all 6B/Colon 1A media components plus 50% L-WRN conditioned media (ATCC, cat. CRL-3276), 50 ng/mL recombinant human EGF recombinant protein (hEGF; Thermo Fisher Scientific, cat. PHG0311), 10 ng/mL recombinant human fibroblast growth factor 10 (hGFG-10; PeproTech, cat. 100-26), 1 ng/mL recombinant human fibroblast growth factor 2 (hFGF-2; PeproTech, cat. 100-18B), and 1 µM prostaglandin E2 (PGE2; Tocris, cat. 2296). The 227483-062-R1-J1-PDC line was cultured in Panc media, containing all 6E components except hFGF-2, with the addition of 500 nM SB-431542 (Selleckchem, cat. S1067) and 10 nM gastrin (Tocris, cat. 3006). […]

[1] = second compound 0.0316 µM, first compound 0.0316 µM
[2] = second compound 0.0316 µM, first compound 0.1 µM
[3] = second compound 0.0316 µM, first compound 0.316 µM
[4] = second compound 0.0316 µM, first compound 1 µM
[5] = second compound 0.0316 µM, first compound 3.16 µM
[6] = second compound 0.0316 µM, first compound 10 µM
[7] = second compound 0.1 µM, first compound 0.0316 µM
[8] = second compound 0.1 µM, first compound 0.1 µM
[9] = second compound 0.1 µM, first compound 0.316 µM
[10] = second compound 0.1 µM, first compound 1 µM
[11] = second compound 0.1 µM, first compound 3.16 µM
[12] = second compound 0.1 µM, first compound 10 µM
[13] = second compound 0.316 µM, first compound 0.0316 µM
[14] = second compound 0.316 µM, first compound 0.1 µM
[15] = second compound 0.316 µM, first compound 0.316 µM
[16] = second compound 0.316 µM, first compound 1 µM
[17] = second compound 0.316 µM, first compound 3.16 µM
[18] = second compound 0.316 µM, first compound 10 µM
[19] = second compound 1 µM, first compound 0.0316 µM
[20] = second compound 1 µM, first compound 0.1 µM
[21] = second compound 1 µM, first compound 0.316 µM
[22] = second compound 1 µM, first compound 1 µM
[23] = second compound 1 µM, first compound 3.16 µM
[24] = second compound 1 µM, first compound 10 µM
[25] = second compound 3.16 µM, first compound 0.0316 µM
[26] = second compound 3.16 µM, first compound 0.1 µM
[27] = second compound 3.16 µM, first compound 0.316 µM
[28] = second compound 3.16 µM, first compound 1 µM
[29] = second compound 3.16 µM, first compound 3.16 µM
[30] = second compound 3.16 µM, first compound 10 µM
[31] = second compound 10 µM, first compound 0.0316 µM
[32] = second compound 10 µM, first compound 0.1 µM
[33] = second compound 10 µM, first compound 0.316 µM
[34] = second compound 10 µM, first compound 1 µM
[35] = second compound 10 µM, first compound 3.16 µM
[36] = second compound 10 µM, first compound 10 µM
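Note: compound exposure lasted seven days before readout.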
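Throughout, for viability, T/C: 100% = DMSO vehicle control wells.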

C#Cc1c(F)ccc2cc(O)cc(-c3ncc4c(N5CC6CCC(C5)N6)nc(OCC56CCCN5CC(F)C6)nc4c3F)c12 (stereo unspecified) + CN1CCN(c2cc(C(=O)Nc3cc4cc(-c5cnn(C)c5)ccc4cn3)ccn2)CC1
IC50 (second compound 0.0316 µM): 891 nM | IC50 (second compound 0.1 µM): 188 nM | IC50 (second compound 0.316 µM): < 31.6 nM | IC50 (second compound 1 µM): < 31.6 nM | IC50 (second compound 3.16 µM): < 31.6 nM | IC50 (second compound 10 µM): < 31.6 nM | viability, T/C [1]: 110% | viability, T/C [2]: 88.2% | viability, T/C [3]: 76.2% | viability, T/C [4]: 44% | viability, T/C [5]: 29.4% | viability, T/C [6]: 15.2% | viability, T/C [7]: 73.7% | viability, T/C [8]: 75.3% | viability, T/C [9]: 29.7% | viability, T/C [10]: 22.9% | viability, T/C [11]: 16.3% | viability, T/C [12]: 9.03% | viability, T/C [13]: 16% | viability, T/C [14]: 11.7% | viability, T/C [15]: 6.4% | viability, T/C [16]: 4.52% | viability, T/C [17]: 4.02% | viability, T/C [18]: 2.36% | viability, T/C [19]: 0.29% | viability, T/C [20]: 0.77% | viability, T/C [21]: 0.35% | viability, T/C [22]: 0.39% | viability, T/C [23]: 0.43% | viability, T/C [24]: 0.19% | viability, T/C [25]: 1.1% | viability, T/C [26]: 0.65% | viability, T/C [27]: 0.64% | viability, T/C [28]: 1.1% | viability, T/C [29]: 1.04% | viability, T/C [30]: 0.26% | viability, T/C [31]: 0.72% | viability, T/C [32]: 0.54% | viability, T/C [33]: 0.53% | viability, T/C [34]: 0.64% | viability, T/C [35]: 1.33% | viability, T/C [36]: 0.27%

C=C(F)C(=O)N1CCN(c2nc(OCC3CCCN3C)nc3c2CCN(c2cccc4cccc(Cl)c24)C3)CC1CC#N (stereo unspecified) + CN1CCN(c2cc(C(=O)Nc3cc4cc(-c5cnn(C)c5)ccc4cn3)ccn2)CC1
IC50 (second compound 0.0316 µM): 6630 nM | IC50 (second compound 0.1 µM): 5050 nM | IC50 (second compound 0.316 µM): < 31.6 nM | IC50 (second compound 1 µM): < 31.6 nM | IC50 (second compound 3.16 µM): < 31.6 nM | IC50 (second compound 10 µM): < 31.6 nM | viability, T/C [1]: 84.2% | viability, T/C [2]: 78.5% | viability, T/C [3]: 115% | viability, T/C [4]: 90.6% | viability, T/C [5]: 106% | viability, T/C [6]: 24.9% | viability, T/C [7]: 82.7% | viability, T/C [8]: 76.7% | viability, T/C [9]: 81.4% | viability, T/C [10]: 95.8% | viability, T/C [11]: 83.5% | viability, T/C [12]: 1.11% | viability, T/C [13]: 25.1% | viability, T/C [14]: 27.1% | viability, T/C [15]: 30% | viability, T/C [16]: 35% | viability, T/C [17]: 32% | viability, T/C [18]: 1.64% | viability, T/C [19]: 1.65% | viability, T/C [20]: 0.34% | viability, T/C [21]: 1.16% | viability, T/C [22]: 0.32% | viability, T/C [23]: 0.22% | viability, T/C [24]: 2.22% | viability, T/C [25]: 1.31% | viability, T/C [26]: 1.53% | viability, T/C [27]: 1.42% | viability, T/C [28]: 1.35% | viability, T/C [29]: 1.01% | viability, T/C [30]: 1.05% | viability, T/C [31]: 0.68% | viability, T/C [32]: 1% | viability, T/C [33]: 1.19% | viability, T/C [34]: 0.79% | viability, T/C [35]: 1.52% | viability, T/C [36]: 0.2%

CC(CO)NC(=O)c1cc(-c2ccc(Cl)cc2)nn(-c2cnn(C)c2)c1=O (stereo unspecified) + CN1CCN(c2cc(C(=O)Nc3cc4cc(-c5cnn(C)c5)ccc4cn3)ccn2)CC1
IC50 (second compound 0.0316 µM): > 10000 nM | IC50 (second compound 0.1 µM): > 10000 nM | IC50 (second compound 0.316 µM): < 31.6 nM | IC50 (second compound 1 µM): < 31.6 nM | IC50 (second compound 3.16 µM): < 31.6 nM | IC50 (second compound 10 µM): < 31.6 nM | viability, T/C [1]: 118% | viability, T/C [2]: 111% | viability, T/C [3]: 96.7% | viability, T/C [4]: 102% | viability, T/C [5]: 106% | viability, T/C [6]: 112% | viability, T/C [7]: 106% | viability, T/C [8]: 92.2% | viability, T/C [9]: 106% | viability, T/C [10]: 103% | viability, T/C [11]: 107% | viability, T/C [12]: 97.3% | viability, T/C [13]: 25% | viability, T/C [14]: 27.6% | viability, T/C [15]: 29.6% | viability, T/C [16]: 30.5% | viability, T/C [17]: 25.2% | viability, T/C [18]: 35.1% | viability, T/C [19]: 0.55% | viability, T/C [20]: 0.96% | viability, T/C [21]: 0.66% | viability, T/C [22]: 0.35% | viability, T/C [23]: 0.36% | viability, T/C [24]: 0.38% | viability, T/C [25]: 0.96% | viability, T/C [26]: 1.12% | viability, T/C [27]: 0.88% | viability, T/C [28]: 1.2% | viability, T/C [29]: 1.15% | viability, T/C [30]: 1.66% | viability, T/C [31]: 0.72% | viability, T/C [32]: 0.76% | viability, T/C [33]: 0.63% | viability, T/C [34]: 0.88% | viability, T/C [35]: 0.8% | viability, T/C [36]: 0.63%
